Measurements from patent US4452812A, “Organic complex of platinum, its preparation and its use for treating malignant tumors” (Sanofi, priority 1980, dated 1984).

Test system: baboon
Assay: Preliminary toxicological study in the baboon
Assay type: in vivo
Set-up: creatine level / Granulocytes / Platelets: unit not given here
Method: In order to find out the maximum tolerable dose, two baboons, identified by no 1 and no 2, received 100 mg/kg and 150 mg/kg respectively without prehydration. Hydration was performed on baboon no 3 which received a dose of 200 mg/kg.
The compound was injected into the femoral vein during 5 to 10 minutes. Baboon No. 3 (200 mg/kg) received 700 ml of physiological serum by intravenous route. Baboons Nos. 1 and 2 received 1000 ml by sub-cutaneous route.
Gastro-intestinal toxicity was the first type of toxicity to appear and generally manifested itself 1 to 2 hours after injection of the compound. […] D0 was the day of treatment and a sample was taken before the compound was injected.
The results on D0 were therefore control values.

[1] = baboon No 1, 100 mg/kg i.v., D2
[2] = baboon No 1, 100 mg/kg i.v., D6
[3] = baboon No 1, 100 mg/kg i.v., D16
[4] = baboon No 1, 100 mg/kg i.v., D30
[5] = baboon No 1, 100 mg/kg i.v., D37
[6] = baboon No 1, 100 mg/kg i.v., D38
[7] = baboon No 1, 100 mg/kg i.v., D41
[8] = baboon No 1, 100 mg/kg i.v., D48
[9] = baboon No 1, 100 mg/kg i.v., D57
[10] = baboon No 1, 100 mg/kg i.v., D62
[11] = baboon No 1, 100 mg/kg i.v., D76
[12] = baboon No 1, 100 mg/kg i.v., D79
[13] = baboon No 1, 100 mg/kg i.v., D85
[14] = baboon No 1, 100 mg/kg i.v., D90
[15] = baboon No 1, 100 mg/kg i.v., D100
[16] = baboon No 1, 100 mg/kg i.v., D105
[17] = baboon No 1, 100 mg/kg i.v., D106
[18] = baboon No 1, 100 mg/kg i.v., D111
[19] = baboon No 1, 100 mg/kg i.v., D122
[20] = baboon No 1, 100 mg/kg i.v., D129
[21] = baboon No 1, 100 mg/kg i.v., D134
[22] = baboon No 1, 100 mg/kg i.v., D140
[23] = baboon No 2, 150 mg/kg i.v., D1
[24] = baboon No 2, 150 mg/kg i.v., D4
[25] = baboon No 2, 150 mg/kg i.v., D11
[26] = baboon No 3, 200 mg/kg i.v., D4
[27] = baboon No 3, 200 mg/kg i.v., D6
[28] = baboon No 3, 200 mg/kg i.v., D12
[29] = baboon No 3, 200 mg/kg i.v., D15
[30] = baboon No 3, 200 mg/kg i.v., D18
[31] = baboon No 3, 200 mg/kg i.v., D24
[32] = baboon No 3, 200 mg/kg i.v., D30
[33] = baboon No 3, 200 mg/kg i.v., D40

NC1CCCCC1N.O=C([O-])CC(C(=O)[O-])C([O-])C(=O)[O-].[H+].[H+].[Pt+2] (stereo not drawn) [PHIC, cis-isocitrato (1,2-diaminocyclohexane) platinum (II)] was tested, and the nephrotoxic effect (100 mg/kg i.v., absence of hydration) was “no nephrotoxic effect was observed”, the “day on which creatinine levels return to normal values” (200 mg/kg i.v. with hydration) was 18 days and the nephrotoxicity (200 mg/kg i.v. with hydration) was “nephtotoxicity is detected”. The “vomiting (severity)” value (100-200 mg/kg i.v.) was “vomiting was not profuse”, the “Quick plasma prothrombin time” value (baboon No 1, 100 mg/kg i.v., D1) was 75% and the Creatinine [1] was 110 μmols/l. For the same compound, the “Fibrinogen I” value [1] was 2.25 g/L, the “Quick plasma prothrombin time” value [1] was 80% and the Creatinine [2] was 91 μmols/l. For the same compound, the “Fibrinogen I” value [2] was 2.40 g/L, the Granulocytes [2] was 2480 and the Platelets [2] was 526000. For the same compound, the “Proaccelerin V” value [2] was 100%, the “Proconvertin VII + Stuart factor X” value [2] was 70% and the “Prothrombin II” value [2] was 95%. For the same compound, the “Quick plasma prothrombin time” value [2] was 65%, the Weight [2] was 7.7 kg and the Creatinine [3] was 105 μmols/l. For the same compound, the “Fibrinogen I” value [3] was 1.95 g/L, the Granulocytes [3] was 4560 and the Platelets [3] was 414000. For the same compound, the “Quick plasma prothrombin time” value [3] was 95%, the Weight [3] was 8.4 kg and the Creatinine [4] was 138 μmols/l. For the same compound, the “Fibrinogen I” value [4] was 1.52 g/L, the Granulocytes [4] was 3969 and the Platelets [4] was 414000. For the same compound, the “Quick plasma prothrombin time” value [4] was 85%, the Creatinine [5] was 99 μmols/l and the “Fibrinogen I” value [5] was 1.46 g/L. For the same compound, the Granulocytes [5] was 2989, the Platelets [5] was 362000 and the “Quick plasma prothrombin time” value [5] was 85%. For the same compound, the Weight [5] was 8.35 kg, the Creatinine [6] was 85 μmols/l and the “Fibrinogen I” value [6] was 1.85 g/L. The Granulocytes [6] was 4824, the Platelets [6] was 299000 and the “Quick plasma prothrombin time” value [6] was 85%. For the same compound, the Creatinine [7] was 102 μmols/l, the “Fibrinogen I” value [7] was 2.72 g/L and the Granulocytes [7] was 4212. For the same compound, the Platelets [7] was 371000, the “Quick plasma prothrombin time” value [7] was 100% and the Creatinine [8] was 136 μmols/l. For the same compound, the “Fibrinogen I” value [8] was 2.70 g/L, the Granulocytes [8] was 3696 and the Platelets [8] was 708000. The “Quick plasma prothrombin time” value [8] was 95%, the Weight [8] was 7.6 kg and the Creatinine [9] was 96 μmols/l. For the same compound, the “Fibrinogen I” value [9] was 2.67 g/L, the Granulocytes [9] was 2498 and the Platelets [9] was 329000. The “Quick plasma prothrombin time” value [9] was 90%, the Weight (baboon No 1, 100 mg/kg i.v., D58) was 8.45 kg and the Creatinine [10] was 136 μmols/l. The “Fibrinogen I” value [10] was 1.86 g/L, the Granulocytes [10] was 3726 and the Platelets [10] was 378000. The “Quick plasma prothrombin time” value [10] was 50%, the Creatinine [11] was 121 μmols/l and the “Fibrinogen I” value [11] was 1.75 g/L. For the same compound, the Granulocytes [11] was 1071, the Platelets [11] was 375000 and the “Quick plasma prothrombin time” value [11] was 95%. The Creatinine [12] was 138 μmols/l, the “Fibrinogen I” value [12] was 2.10 g/L and the Granulocytes [12] was 2541. The Platelets [12] was 382000, the “Quick plasma prothrombin time” value [12] was 95% and the Weight (baboon No 1, 100 mg/kg i.v., D84) was 7.93 kg. The Creatinine [13] was 97 μmols/l, the “Fibrinogen I” value [13] was 2.08 g/L and the Granulocytes [13] was 3599. The Platelets [13] was 549000, the “Proaccelerin V” value [13] was 100% and the “Proconvertin VII + Stuart factor X” value [13] was 90%. For the same compound, the “Quick plasma prothrombin time” value [13] was 85%, the Creatinine [14] was 96 μmols/l and the Granulocytes [14] was 1917. The Platelets [14] was 685000, the Creatinine [15] was 110 μmols/l and the “Fibrinogen I” value [15] was 2.50 g/L. For the same compound, the Granulocytes [15] was 3230, the Platelets [15] was 340000 and the “Quick plasma prothrombin time” value [15] was 95%. The Creatinine [16] was 60 μmols/l, the “Fibrinogen I” value [16] was 2.25 g/L and the Granulocytes [16] was 2030. The Platelets [16] was 266000, the “Quick plasma prothrombin time” value [16] was 95% and the Weight [16] was 8.59 kg. The Creatinine [17] was 120 μmols/l, the “Fibrinogen I” value [17] was 2.20 g/L and the Granulocytes [17] was 10120. For the same compound, the Platelets [17] was 231000, the “Quick plasma prothrombin time” value [17] was 75% and the Creatinine [18] was 102 μmols/l. For the same compound, the “Fibrinogen I” value [18] was 2.20 g/L, the Granulocytes [18] was 1121 and the Platelets [18] was 345000. The “Proaccelerin V” value [18] was 100%, the “Proconvertin VII + Stuart factor X” value [18] was 39% and the “Prothrombin II” value [18] was 70%. The “Quick plasma prothrombin time” value [18] was 48%, the “Fibrinogen I” value [19] was 2.10 g/L and the Granulocytes [19] was 1232. For the same compound, the Platelets [19] was 348000, the “Quick plasma prothrombin time” value [19] was 100% and the BUN (baboon No 1, 100 mg/kg i.v., D122, normal range 3-7 mmol/l) was 4.5 mmol/L. For the same compound, the Creatinine [20] was 90 μmols/l, the “Fibrinogen I” value [20] was 2.15 g/L and the Granulocytes [20] was 5406. For the same compound, the Platelets [20] was 508000, the “Quick plasma prothrombin time” value [20] was 100% and the Weight (baboon No 1, 100 mg/kg i.v., D133) was 7.65 kg. It also gave a Creatinine [21] of 126 μmols/l, a Granulocytes [21] of 7245 and a Platelets [21] of 580000. The Creatinine [22] was 114 μmols/l, the “Fibrinogen I” value [22] was 2.50 g/L and the Granulocytes [22] was 4794. The Platelets [22] was 441000, the “Quick plasma prothrombin time” value [22] was 100% and the “creatine level” value (baboon No 2, 150 mg/kg i.v.) was 1552. For the same compound, the death (baboon No 2, 150 mg/kg i.v.) was “died on D11”, the “food and water intake” value (baboon No 2, 150 mg/kg i.v.) was “neither eaten nor drunk for 11 days” and the Creatinine [23] was 96 μmols/l. The “Fibrinogen I” value [23] was 1.46 g/L, the Granulocytes [23] was 9672 and the Platelets [23] was 261000. For the same compound, the “Proaccelerin V” value [23] was 70%, the “Proconvertin VII + Stuart factor X” value [23] was 62% and the “Prothrombin II” value [23] was 42%. For the same compound, the “Quick plasma prothrombin time” value [23] was 60%, the Creatinine [24] was 245 μmols/l and the “Fibrinogen I” value [24] was 2.82 g/L. For the same compound, the Granulocytes [24] was 1988, the Platelets [24] was 212000 and the “Quick plasma prothrombin time” value [24] was 85%. The Creatinine [25] was 1552 μmols/l, the “Fibrinogen I” value [25] was 4.20 g/L and the Granulocytes [25] was 555. For the same compound, the Platelets [25] was 174000, the “Proaccelerin V” value [25] was 100% and the “Proconvertin VII + Stuart factor X” value [25] was 55%. For the same compound, the “Prothrombin II” value [25] was 55%, the “Quick plasma prothrombin time” value [25] was 55% and the Weight [25] was 5.5 kg. For the same compound, the Creatinine [26] was 140 μmols/l, the “Fibrinogen I” value [26] was 2.70 g/L and the Granulocytes [26] was 4536. The Platelets [26] was 70000, the “Proaccelerin V” value [26] was 100% and the “Proconvertin VII + Stuart factor X” value [26] was under 5%. For the same compound, the “Prothrombin II” value [26] was 30%, the “Quick plasma prothrombin time” value [26] was 10% and the Weight [26] was 6.25 kg. The Creatinine [27] was 350 μmols/l, the “Fibrinogen I” value [27] was 3.00 g/L and the Granulocytes [27] was 5236. For the same compound, the Platelets [27] was 208000, the “Proaccelerin V” value [27] was 100% and the “Proconvertin VII + Stuart factor X” value [27] was 25%. For the same compound, the “Prothrombin II” value [27] was 25%, the “Quick plasma prothrombin time” value [27] was 30% and the Creatinine [28] was 646 μmols/l. For the same compound, the “Fibrinogen I” value [28] was 4.80 g/L, the Granulocytes [28] was 7905 and the Platelets [28] was 241000. For the same compound, the “Quick plasma prothrombin time” value [28] was 85%, the Weight [28] was 5.31 kg and the Creatinine [29] was 265 μmols/l. The “Fibrinogen I” value [29] was 3.85 g/L, the Granulocytes [29] was 3550 and the Platelets [29] was 114000. The “Quick plasma prothrombin time” value [29] was 90%, the Creatinine [30] was 118 μmols/l and the “Fibrinogen I” value [30] was 2.60 g/L. For the same compound, the Granulocytes [30] was 722, the Platelets [30] was 312000 and the “Quick plasma prothrombin time” value [30] was 100%. For the same compound, the Creatinine [31] was 97 μmols/l, the “Fibrinogen I” value [31] was 2.00 g/L and the Granulocytes [31] was 4872. For the same compound, the Platelets [31] was 366000, the “Quick plasma prothrombin time” value [31] was 100% and the Weight [31] was 5.6 kg. The Creatinine [32] was 104 μmols/l, the “Fibrinogen I” value [32] was 2.25 g/L and the Granulocytes [32] was 10752. The Platelets [32] was 457000, the “Quick plasma prothrombin time” value [32] was 95% and the Weight [32] was 5.9 kg. The Creatinine [33] was 94 μmols/l, the “Fibrinogen I” value [33] was 1.50 g/L and the Granulocytes [33] was 4731. For the same compound, the Platelets [33] was 299000, the “Quick plasma prothrombin time” value [33] was 95% and the Weight [33] was 6.33 kg. For the same compound, the “toxicity (in words)” value (baboons) was “Extremely low toxicity”.
